Assay results published in ChEMBL document CHEMBL4431299 (Medchemcomm, 2016).
Activity calls are given as the source filed them. No cut-off for these calls is given here.

Each compound was assayed against Mitogen-activated protein kinase 14 (Mus musculus) (UniProt P47811) (assay: (§1) Inhibition of kinase tracer 199 binding to mouse inactive p38alpha (2 to 349 residues) expressed in Escherichia coli by microscale thermophoresis assay).
Sequence of Mitogen-activated protein kinase 14 (Mus musculus) (P47811 whole entry, the tested form may be a part): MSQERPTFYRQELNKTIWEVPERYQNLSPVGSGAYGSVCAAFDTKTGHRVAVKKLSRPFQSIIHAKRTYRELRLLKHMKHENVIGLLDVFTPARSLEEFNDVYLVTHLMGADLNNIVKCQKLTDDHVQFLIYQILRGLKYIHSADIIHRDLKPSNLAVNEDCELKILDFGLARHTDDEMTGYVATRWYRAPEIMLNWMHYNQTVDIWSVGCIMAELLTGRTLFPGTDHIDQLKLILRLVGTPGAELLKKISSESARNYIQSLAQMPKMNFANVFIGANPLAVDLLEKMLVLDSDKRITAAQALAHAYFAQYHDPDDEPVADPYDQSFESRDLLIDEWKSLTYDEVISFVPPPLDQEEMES

Row | Structure (SMILES) | inhibition
1 | CC(C)(C)c1cc(NC(=O)Nc2ccc(Cl)cc2)n(-c2ccccc2Cl)n1 | inactive
2 | CC(C)(C)c1cc(NC(=O)Nc2ccc(Cl)cc2)n(-c2ccccc2F)n1 | Active
3 | COc1ccccc1-n1nc(C(C)(C)C)cc1NC(=O)Nc1ccc(Cl)cc1 | inactive

The next lines start with the values.

Row | inhibition | Structure (SMILES)
4 | Active | CC(C)(C)c1cc(NC(=O)Nc2ccc(Cl)cc2)n(-c2ccc(F)cc2)n1
5 | Active | CC(C)(C)c1cc(NC(=O)Nc2ccc(Cl)cc2)n(-c2ccc(Cl)cc2)n1
6 | Active | COc1ccc(-n2nc(C(C)(C)C)cc2NC(=O)Nc2ccc(Cl)cc2)cc1

What follows are compounds tested against Mitogen-activated protein kinase 14 (Mus musculus, UniProt P47811) (assay: as §1).
Sequence of Mitogen-activated protein kinase 14 (P47811 whole entry): as the sequence (P47811 whole entry, the tested form may be a part) above

Row | Ki [µM] | Structure (SMILES)
7 | 0.73 | Cc1ccccc1-n1nc(C(C)(C)C)cc1NC(=O)Nc1ccc(Cl)cc1
8 | 0.1 | CC(C)(C)c1cc(NC(=O)Nc2ccc(Cl)cc2)n(-c2ccccc2)n1
9 | 0.02 | Cc1cccc(-n2nc(C(C)(C)C)cc2NC(=O)Nc2ccc(Cl)cc2)c1
10 | 0.03 | Cc1ccc(-n2nc(C(C)(C)C)cc2NC(=O)Nc2ccc(Cl)cc2)cc1
